# Assay results from patent US20240252506A1 (Hoffmann-La Roche Inc., priority 2021, published 2024).
# System: Escherichia coli ATCC 25922
# Assay: Minimal Inhibitory Concentration (MIC) determination, broth microdilution (CLSI M07-A10)
# Type: cell-based
# Conditions: Escherichia coli, ATCC25922, strain Escherichia coli ATCC 25922, 18-24 hours at 35±2° C., lowest concentration for complete growth inhibition (no visible growth), read-out: Escherichia coli growth inhibition MIC
# How it was run: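 MIC read visually as the lowest concentration with complete growth inhibition after 18-24 h at 35±2° C, ambient air. Method follows CLSI M07-A10 broth microdilution, two-fold compound series, inoculum standardized to 0.5 McFarland then diluted 1:200.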
row,MIC,SMILES
1,0.125 µg/mL,"C[C@@H](N)c1nc2c(F)c3c(c(F)c2n1C)CC(CN1CCC2(CC1)CN(c1cnc4c(n1)NC(=O)CO4)C(=O)O2)C3 (stereo partly drawn) [Example 68, 6-[8-[[2-[(1R)-1-aminoethyl]-4,8-difluoro-1-methyl-6,7-dihydro-5H-cyclopenta[f]benzimidazol-6-yl]methyl]-2-oxo-1-oxa-3,8-diazaspiro[4.5]decan-3-yl]-4H-pyrazino[2,3-b][1,4]oxazin-3-one]"
2,0.25 µg/mL,"CNCCc1nc2cc3c(c(F)c2[nH]1)CC(CN1CCC2(CC1)CN(c1cnc4c(n1)NC(=O)CO4)C(=O)O2)C3 (stereo not shown) [Example 69, 6-[8-[[8-fluoro-2-[2-(methylamino)ethyl]-1,5,6,7-tetrahydrocyclopenta[f]benzimidazol-6-yl]methyl]-2-oxo-1-oxa-3,8-diazaspiro[4.5]decan-3-yl]-4H-pyrazinio[2,3-b][1,4]oxazin-3-one]"
3,0.25 µg/mL,"COCCNCc1nc2c(F)c3c(cc2[nH]1)CC(CN1CCC2(CC1)CN(c1cnc4c(n1)NC(=O)CO4)C(=O)O2)C3 (stereo not shown) [Example 70, 6-[8-[[8-fluoro-2-[(2-methoxyethylamino)methyl]-3,5,6,7-tetrahydrocyclopenta[f]benzimidazol-6-yl]methyl]-2-oxo-1-oxa-3,8-diazaspiro[4.5]decan-3-yl]-4H-pyrazino[2,3-b][1,4]oxazin-3-one]"
4,1 µg/mL,"CNC(=O)CNCc1nc2c(F)c3c(cc2[nH]1)CC(CN1CCC2(CC1)CN(c1cnc4c(n1)NC(=O)CO4)C(=O)O2)C3 (stereo not shown) [Example 71, 2-[[8-fluoro-6-[[2-oxo-3-(3-oxo-4H-pyrazino[2,3-b][1,4]oxazin-6-yl)-1-oxa-3,8-diazaspiro[4.5]decan-8-yl]methyl]-3,5,6,7-tetrahydrocyclopenta[f]benzimidazol-2-yl]methylamino]-N-methyl-acetamide]"
5,2 µg/mL,"Cc1nc2c(F)c3c(cc2n1CCN)CC(CN1CCC2(CC1)CN(c1cnc4c(n1)NC(=O)CO4)C(=O)O2)C3 (stereo not shown) [Example 73, 6-[8-[[3-(2-Aminoethyl)-8-fluoro-2-methyl-6,7-dihydro-5H-cyclopenta[f]benzimidazol-6-yl]methyl]-2-oxo-1-oxa-3,8-diazaspiro[4.5]decan-3-yl]-4H-pyrazino[2,3-b][1,4]oxain-3-one]"
6,≤ 0.06 µg/mL,"NCCn1nnc2c(F)c3c(cc21)CC(CN1CCC2(CC1)CN(c1cnc4c(n1)NC(=O)CO4)C(=O)O2)C3 (stereo not shown) [Example 75, 6-[8-[[3-(2-aminoethyl)-8-fluoro-6,7-dihydro-5H-cyclopenta[f]benzotriazol-6-yl]methyl]-2-oxo-1-oxa-3,8-diazaspiro[4.5]decan-3-yl]-4H-pyrazino[2,3-b][1,4]oxazin-3-one]"
7,0.125 µg/mL,"NCCn1nnc2cc3c(c(F)c21)CC(CN1CCC2(CC1)CN(c1cnc4c(n1)NC(=O)CO4)C(=O)O2)C3 (stereo not shown) [Example 76, 6-[8-[[1-(2-aminoethyl)-8-fluoro-6,7-dihydro-5H-cyclopenta[f]benzotriazol-6-yl]methyl]-2-oxo-1-oxa-3,8-diazaspiro[4.5]decan-3-yl]-4H-pyrazino[2,3-b][1,4]oxazin-3-one]"
8,0.25 µg/mL,"NC1(Cn2nc3c(F)c4c(c(F)c3n2)CC(CN2CCC3(CC2)CN(c2cnc5c(n2)NC(=O)CO5)C(=O)O3)C4)CC1.O=C(O)C(F)(F)F [Example 77, 6-[8-[[2-[(1-aminocyclopropyl)methyl]-4,8-difluoro-6,7-dihydro-5H-cyclopenta[f]benzotriazol-6-yl]methyl]-2-oxo-1-oxa-3,8-diazaspiro[4.5]decan-3-yl]-4H-pyrazino[2,3-b][1,4]oxazin-3-one; 2,2,2-trifluoroacetic acid]"
9,0.25 µg/mL,"NC1(Cn2nnc3c(F)c4c(c(F)c32)CC(CN2CCC3(CC2)CN(c2cnc5c(n2)NC(=O)CO5)C(=O)O3)C4)CC1 (stereo not shown) [Example 78, 6-[8-[[1-[(1-aminocyclopropyl)methyl]-4,8-difluoro-6,7-dihydro-5H-cyclopenta[f]benzotriazol-6-yl]methyl]-2-oxo-1-oxa-3,8-diazaspiro[4.5]decan-3-yl]-4H-pyrazino[2,3-b][1,4]oxazin-3-one]"

# Second part, the molecule before the results:
row,SMILES,MIC
1,"CN1C[C@H](O)C[C@H]1c1nc2c(F)c3c(c(F)c2[nH]1)CC(CN1CCC2(CC1)CN(c1cnc4c(n1)NC(=O)CO4)C(=O)O2)C3 [Example 58, 6-[8-[[4,8-Difluoro-2-[(2S,4R)-4-hydroxy-1-methyl-pyrrolidin-2-yl]-3,5,6,7-tetrahydrocyclopenta[f]benzimidazol-6-yl]methyl]-2-oxo-1-oxa-3,8-diazaspiro[4.5]decan-3-yl]-4H-pyrazino[2,3-b][1,4]oxazin-3-one]",1 µg/mL
2,"CNCC(=O)NCCn1nnc2c(F)c3c(c(F)c21)CC(CN1CCC2(CC1)CN(c1cnc4c(n1)NC(=O)CO4)C(=O)O2)C3 (stereo not shown) [Example 61, N-[2-[4,8-Difluoro-6-[[2-oxo-3-(3-oxo-4H-pyrazino[2,3-b][1,4]oxazin-6-yl)-1-oxa-3,8-diazaspiro[4.5]decan-8-yl]methyl]-6,7-dihydro-5H-cyclopenta[f]benzotriazol-1-yl]ethyl]-2-(methylamino)acetamide]",0.5 µg/mL
3,"CN(C)CCc1nc2cc3c(c(F)c2o1)CC(CN1CCC2(CC1)CN(c1cnc4c(n1)NC(=O)CO4)C(=O)O2)C3 (stereo not shown) [Example 62, 6-[8-[[2-[2-(Dimethylamino)ethyl]-8-fluoro-6,7-dihydro-5H-cyclopenta[f][1,3]benzoxazol-6-yl]methyl]-2-oxo-1-oxa-3,8-diazaspiro[4.5]decan-3-yl]-4H-pyrazino[2,3-b][1,4]oxazin-3-one]",0.25 µg/mL
4,"CN(C)[C@H](CO)Cc1nc2c(F)c3c(c(F)c2[nH]1)CC(CN1CCC2(CC1)CN(c1cnc4c(n1)NC(=O)CO4)C(=O)O2)C3 [Example 63, 6-[8-[[2-[(2S)-2-(Dimethylamino)-3-hydroxy-propyl]-4,8-difluoro-3,5,6,7-tetrahydrocyclopenta[f]benzimidazol-6-yl]methyl]-2-oxo-1-oxa-3,8-diazaspiro[4.5]decan-3-yl]-4H-pyrazino[2,3-b][1,4]oxazin-3-one]",0.25 µg/mL
5,"CN(C)CCn1nnc2c(F)c3c(c(F)c21)CC(CN1CCC2(CC1)CN(c1cnc4c(n1)NC(=O)CO4)C(=O)O2)C3 (stereo not shown) [Example 64, 6-[8-[[1-[2-(Dimethylamino)ethyl]-4,8-difluoro-6,7-dihydro-5H-cyclopenta[f]benzotriazol-6-yl]methyl]-2-oxo-1-oxa-3,8-diazaspiro[4.5]decan-3-yl]-4H-pyrazino[2,3-b][1,4]oxazin-3-one]",0.25 µg/mL
6,"CN(C)CCn1nnc2c(F)c3c(cc21)CC(CN1CCC2(CC1)CN(c1cnc4c(n1)NC(=O)CO4)C(=O)O2)C3 (stereo not shown) [Example 65, 6-[8-[[3-[2-(Dimethylamino)ethyl]-8-fluoro-6,7-dihydro-5H-cyclopenta[f]benzotriazol-6-yl]methyl]-2-oxo-1-oxa-3,8-diazaspiro[4.5]decan-3-yl]-4H-pyrazino[2,3-b][1,4]oxazin-3-one]",0.125 µg/mL
7,"NCCn1nc2cc3c(c(F)c2n1)CC(CN1CCC2(CC1)CN(c1cnc4c(n1)NC(=O)CO4)C(=O)O2)C3 (stereo not shown) [Example 74, 6-[8-[[2-(2-aminoethyl)-8-fluoro-6,7-dihydro-5H-cyclopenta[f]benzotriazol-6-yl]methyl]-2-oxo-1-oxa-3,8-diazaspiro[4.5]decan-3-yl]-4H-pyrazino[2,3-b][1,4]oxazin-3-one]",0.06 µg/mL
